Like-named read-outs stand apart in the source and are kept apart here.
Tests used:
LNCaP-AR cells = assay: SRB in vitro chemosensitivity assay, LNCaP-AR; type: cell-based; conditions: for cytotoxic effect (cytostatic / cytocidal), in words: LNCaP-AR
Protocol: (§1) The cell lines were maintained as a monolayer at 37° C. and subcultured weekly. Culture medium was composed of RPMI 1640 supplemented with 10% fetal calf serum and 1% glutamine (Mascia Brunelli s.p.a., Milan, Italy). Cells were used in the exponential growth phase in all the experiments.
(§2) Compounds were dissolved in acetone or DMSO (AITES) ([…]) and stored at −20° C. The cell culture containing acetone at the highest concentration was used as the control.
(§3) Sulforhodamine B (SRB) assay was used according to the method by Skehan et al. (JNCI, 1990). Briefly, cells were collected by trypsinization, counted and plated at a density of 5,000 cells/well in 96-well flat-bottomed microtiter plates (100 μl of cell suspension/well). In the chemosensitivity assay, experiments were run in octuplicate, and each experiment was repeated three times. The optical density (OD) of cells was determined at a wavelength of 490 nm by a colorimetric plate reader.
(§4) If ODtreated is above ODzero, treatment has induced a cytostatic effect, whereas if ODtreated is below ODzero, cell killing has occurred. The ODzero depicts the cell number at the moment of drug addition, the ODcontrol reflects the cell number in untreated wells and the ODtreated reflects the cell number in treated wells on the day of the assay.
(§5) FIGS. 2-11 show the cytotoxic activity of the derivative compounds of the invention on the LNCaP and LNCaP-AR cell lines. The authors examined the antitumour activity of the compounds for which the synthesis is described above, in the hormone-sensitive prostate cancer cell line LNCaP and in its derivative cell line LNCaP-AR, expressing high level of AR and with hormone refractory prostate cancer (HRPC) features. The novel compounds were tested at the increasing concentrations of […], 0.2, 2.0, and 20.0 μM. The highest dose used was chosen on the basis of the clinically achievable peak plasma concentration reported in the literature for bicalutamide (Cockshott I D. Clin Pharmacokinet. 2004; 43(13): 855-78). After 144-hr exposure time the cytotoxic effect of the molecules was calculated according to the method of Monks et al. (Monks A, Scudiero D, Skehan P, et al. Feasibility of a high-flux anticancer drug screen using a diverse panel of cultured human tumor cell lines. J Natl Cancer Inst. 1991; 83: 757-66.)

DU145 cell line = assay: SRB cytotoxicity, DU145; type: cell-based, human; conditions: DU145 (no AR), 144 h, up to 20 μM
Protocol: (§6) FIGS. 16-25: cytotoxic effect of compounds (R)-XXIII-2, (R)-XXIII-3, (R)-XXIII-4, (R)-XXIII-5, (R)-XXIII-6, (R)-XXIII-7, (R)-XXIII-8, (R)-XXIII-9, (R)-XXIII-10, (R)-XXIV-9 on PC-3 and DU-145 cell lines at different concentration (0.02, 0.2, 2, 20 μM) after 144 h exposure. On the x-axis is reported the concentration, while on the y-axis is reported the inhibition of the net growth (% net growth).
as §3, §4

LNCaP cells = assay: SRB in vitro chemosensitivity assay, LNCaP; type: cell-based
Protocol: as §1, §2, §3, §4, §5

PC-3 cell line = assay: SRB cytotoxicity, PC-3; type: cell-based, human; conditions: PC-3 (no AR), 144 h, up to 20 μM
Protocol: as §6, §3, §4

[1] = tested on: human hepatoblastoma cell line HepG2; assay: Cytotoxic activity on HepG2 (hepato-toxicity); type: cell-based; conditions: HepG2, up to highest concentration tested
Protocol: as §3, §4
FIG. 27-36 show the cytotoxic activity of the drugs on the human hepatoblastoma cell line HepG2. The authors evaluated in vitro the potential hepato-toxicity of some of the novel compounds on HepG2 cell line, a human hepatoblastoma cell line that retains the specialized function of normal hepatocytes [Knowles B B, Howe C C, Aden D P. Human hepatocellular carcinoma cell lines secretes the major plasma proteins and hepatitis B surface antigen. Science 1980, 209:497-499; Aden D P, Vogel A, Plortkin S, Damjanov I, Knowles B B. Controlled synthesis of HBS Ag in a differentiated human liver carcinoma-derived cell line. Nature, 1979, 282:615-616].

[2] = molecular target: T1, human androgen receptor (hAR) (Homo sapiens, UniProt P10275); assay: hAR transactivation assay (ARE-luc) in Cos-7 cells; type: cell-based
T1 construct: expressed in transfected cells; host or cells: Cos-7
T1 sequence (P10275 1-920): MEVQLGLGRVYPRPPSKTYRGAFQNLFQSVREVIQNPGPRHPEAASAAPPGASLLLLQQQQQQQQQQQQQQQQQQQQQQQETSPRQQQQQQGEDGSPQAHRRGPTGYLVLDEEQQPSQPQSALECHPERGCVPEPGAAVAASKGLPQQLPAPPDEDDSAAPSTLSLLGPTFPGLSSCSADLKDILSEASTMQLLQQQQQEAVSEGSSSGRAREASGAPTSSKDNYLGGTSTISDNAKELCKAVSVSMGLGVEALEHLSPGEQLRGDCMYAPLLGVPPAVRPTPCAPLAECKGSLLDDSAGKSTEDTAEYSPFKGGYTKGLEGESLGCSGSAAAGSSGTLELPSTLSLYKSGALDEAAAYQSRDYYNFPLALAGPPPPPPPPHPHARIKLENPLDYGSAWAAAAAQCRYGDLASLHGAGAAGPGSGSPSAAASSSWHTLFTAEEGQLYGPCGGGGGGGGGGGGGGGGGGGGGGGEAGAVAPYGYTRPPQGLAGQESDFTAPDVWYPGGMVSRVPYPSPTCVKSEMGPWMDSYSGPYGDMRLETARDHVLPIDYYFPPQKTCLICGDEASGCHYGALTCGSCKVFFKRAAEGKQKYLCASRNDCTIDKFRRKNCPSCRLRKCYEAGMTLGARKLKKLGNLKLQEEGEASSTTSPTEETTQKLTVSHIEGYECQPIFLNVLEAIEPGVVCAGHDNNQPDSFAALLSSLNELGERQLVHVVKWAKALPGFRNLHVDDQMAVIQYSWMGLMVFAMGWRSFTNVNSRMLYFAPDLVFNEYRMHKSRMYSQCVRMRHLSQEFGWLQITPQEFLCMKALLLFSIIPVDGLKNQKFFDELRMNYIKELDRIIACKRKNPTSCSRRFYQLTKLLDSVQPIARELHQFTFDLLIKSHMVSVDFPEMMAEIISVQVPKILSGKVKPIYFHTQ
Text: The cDNA coding hAR was cloned into the pSG5 expression vector as reported previously [Chang, C. S., J. Kokontis, and S. T. Liao 1988 Molecular cloning of human and rat complementary DNA encoding androgen receptors Science 240:324-326].
The 3416 construct (ARE-Luc), containing four copies of the wild-type slp-HRE2 (5′-TGGTCAgccAGTTCT-3′) was cloned in the NheI site in pTK-TATA-Luc [Verrijdt, G., E. Schoenmakers, A. Haelens, B. Peeters, G. Verhoeven, W. Rombauts, and F. Claessens 2000 Change of specificity mutations in androgen selective enhancers J. Biol. Chem. 275:12298-12305].
For androgen-stimulated transcriptional analysis, 32×10^4 Cos-7 cells were plated in phenol red-free DMEM containing 5% charcoal-stripped serum. After 48 h, the cells were transfected by Superfect (Qiagen) with 0.3 μg of 3416-pTK-TATA-Luc construct, together with 1.5 μg of either pSG5-empty plasmid or pSG5-hAR expressing plasmid. […] When indicated, the synthetic compounds were added alone to the cell medium. […] It was dissolved in 0.001% (final concentration) ethanol. Control cells were treated with the vehicle alone. Lysates were prepared and the luciferase activity was measured using a luciferase assay system (Promega). The results were corrected using CH110-expressed beta-galactosidase activity (Amersham Biosciences) and luciferase activity was expressed as fold induction. Results were obtained from two or three different experiments, each performed in duplicate. Mean and SEM are shown.

[3] = LNCaP-AR cells, 144 h exposure, up to 20 μM
[4] = Homo sapiens, LNCaP, 144 h, read-out: LC50, LNCaP cells, 144 h exposure, up to 20 μM
[5] = read-out: LC50, LNCaP cells, 144 h exposure, up to 20 μM
[6] = LNCaP cells, 144 h exposure, up to 20 μM

Structure (SMILES) | GI50 (LNCaP-AR cells; Homo sapiens, LNCaP/AR, 144 h) | LC50 (LNCaP-AR cells; [3]) | cytotoxic effect (cytostatic / cytocidal), in words (LNCaP-AR cells; 144 h, up to 20 μM) | cytotoxic activity, in words (DU145 cell line) | GI50 (LNCaP cells; Homo sapiens, LNCaP, 144 h) | LC50 (LNCaP cells; [4]) | cytotoxic effect (cytostatic / cytocidal), in words (LNCaP cells; LNCaP, 144 h, up to 20 μM) | LC50 (LNCaP cells; [5]) | cytotoxic activity, in words (PC-3 cell line) | hepato-toxicity, in words [1] | GI50 (LNCaP-AR cells; [3]) | LC50 (LNCaP-AR cells; LNCaP-AR cells, 144 h exposure, up to 20 μM, listed as bicalutamide) | GI50 (LNCaP cells; Homo sapiens, LNCaP cells, 144 h exposure, up to 20 μM, read-out: GI50) | LC50 (LNCaP cells; [6]) | LC50 (LNCaP cells; LNCaP cells, 144 h exposure, up to 20 μM, listed as bicalutamide) | GI50 (LNCaP cells; [6]) | inhibition of R1881-induced AR transcriptional activation (antagonistic activity), in words ([2]; compound 10 μM with 10 nM R1881) | agonistic activity on AR transcription, in words ([2]; compound alone, 10 nM to 1 μM or 10 μM) | LC50 [1]
N#Cc1ccc(OCC(O)(Cc2ccccc2)C(=O)Nc2ccc(C#N)c(C(F)(F)F)c2)cc1 (stereo in doubt) [(R)-XXIV-9] | 7.1 µM | n.r. | cell killing activity | maintain their cytostatic and cytocidal activity | 6.4 µM | 16.2 to 20 µM | cell killing activity | 17.4 µM | maintain their cytostatic and cytocidal activity | did not display toxicity |  |  |  |  |  |  |  |  | 
C[C@](O)(CS(=O)(=O)c1ccc(F)cc1)C(=O)Nc1ccc(C#N)c(C(F)(F)F)c1 [(R)-Bicalutamide, reference compound] |  | n.r. |  |  |  |  |  |  |  |  | n.r. | not observed | 1.8 µM | n.r.^a | not observed |  |  |  | 
CC[C@](O)(CS(=O)(=O)c1ccc(F)cc1)C(=O)Nc1ccc(C#N)c(C(F)(F)F)c1 [(R)-XXIII-2] |  | n.r. | weak cytostatic effect | negligible cytotoxic activity |  |  | weak cytostatic effect |  | negligible cytotoxic activity | did not display toxicity | n.r. |  |  | n.r. |  | n.r. |  |  | 
N#Cc1ccc(NC(=O)[C@](O)(Cc2ccccc2)CS(=O)(=O)c2ccc(F)cc2)cc1C(F)(F)F [(R)-XXIII-3] | 6.2 µM | n.r. | suppress completely the cell growth | negligible cytotoxic activity | 1.8 µM |  | suppress completely the cell growth |  | negligible cytotoxic activity | did not display toxicity |  |  |  | n.r. |  |  | A more robust inhibition | do not exhibit agonistic activity | 
N#Cc1ccc(C[C@](O)(CS(=O)(=O)c2ccc(F)cc2)C(=O)Nc2ccc(C#N)c(C(F)(F)F)c2)cc1 [(R)-XXIII-7] | 1.8 µM | n.r. |  | negligible cytotoxic activity | 1.4 µM | 16.2 to 20 µM | cytocidal effect | 20 µM | negligible cytotoxic activity | did not display toxicity |  |  |  |  |  |  |  |  | 
N#Cc1ccc(NC(=O)[C@](O)(Cc2cc(F)cc(F)c2)CS(=O)(=O)c2ccc(F)cc2)cc1C(F)(F)F [(R)-XXIII-9] | 8.2 µM | n.r. | cell killing activity | maintain their cytostatic and cytocidal activity reaching LC50 values | 5.7 µM | 16.2 to 20 µM | cell killing activity | 19.7 µM | maintain their cytostatic and cytocidal activity reaching LC50 values | Hepato-toxicity was observed |  |  |  |  |  |  |  |  | not able to reach LC50 value
N#Cc1ccc(NC(=O)[C@](O)(Cc2cccc3ccccc23)CS(=O)(=O)c2ccc(F)cc2)cc1C(F)(F)F [(R)-XXIII-10] | 8.3 µM | n.r. | cell killing activity | maintain their cytostatic and cytocidal activity reaching LC50 values | 6.1 µM | 16.2 to 20 µM | cell killing activity | 19.7 µM | maintain their cytostatic and cytocidal activity reaching LC50 values | Hepato-toxicity was observed |  |  |  |  |  |  |  |  | not able to reach LC50 value
